These results are taken from US11572344B2, “Cyanoaryl-aniline compounds for treatment of dermal disorders” (NFlection Therapeutics, Inc., priority 2018, dated 2023).

Broadly, the IC50 is the concentration at which inhibition is half-maximal. The half-life is how long it takes for the measured level to halve. As usually defined, the GI50 is the concentration that inhibits growth by half.

Series [1] addresses MEK1 (Homo sapiens (Human), UniProt Q02750). As to the kind of experiment: MEK Inhibition Assay-2 (Z′-LYTE biochemical assay). The conditions noted are these: Z′-LYTE assay of Example 39; read-out: IC50 against MEK1. The procedure: MEK1 inhibitory activity of compounds were tested using the following procedure (protocol available at thermofisher.com/content/dam/LifeTech/migration/files/drug-discovery/pdfs.par.60256.file.dat/20130430%20ssbk %20customer %20protocol %20and %20assa y %20conditions.pdf). The Z′-LYTE biochemical assay (ThermoFisher) employs a fluorescence-based, coupled-enzyme format and is based on the differential sensitivity of phosphorylated and non-phosphorylated peptides to proteolytic cleavage.
Test compounds in 100% DMSO were screened in 1% DMSO (final) in the well. For 10 point titrations, 3-fold serial dilutions are conducted from the starting concentration of 30 μM.
After the 1 hour incubation, 5 μL of a 1:1024 dilution of Development Reagent A (available from Invitrogen, catalog no. PV3295) was added.
ATP solutions were diluted to a 4× working concentration in Kinase Buffer (50 mM HEPES pH 7.5, 0.01% BRIJ-35, 10 mM MgCl2, 1 mM EGTA). ATP Km apparent was previously determined using a Z′-LYTE assay. The Development Reagent was diluted in Development Buffer (available from Invitrogen, catalog no. P3127).
Assay Protocol: 2.5 μL of 4× test compound or 100 nL of 100× Test Compound plus 2.4 μL Kinase Buffer, 5 μL of the 2× Peptide/Kinase Mixture, 2.5 μL of 4×ATP Solution were added to the plates and placed on a shake plate for 30-seconds. The kinase reaction was allowed to proceed for 60-minute at room temperature, before 5 μL of Development Reagent Solution was added, and the mixture agitated for 30-seconds on a shake plate. The mixture was incubated for 60-minute at room temperature. Fluorescence was measured using a plate reader and the data were analyzed.
This control yielded 100% cleaved peptide in the Development Reaction. The 100% Phosphorylation Control, which consisted of a synthetically phosphorylated peptide of the same sequence as the peptide substrate, was designed to allow for the calculation of percent phosphorylation. This control yielded a very low percentage of cleaved peptide in the Development Reaction. The 0% Phosphorylation and 100% Phosphorylation Controls allow for the calculation of the percent phosphorylation achieved in a specific reaction well.
The minimum emission ratio in a screen was established by the 0% Inhibition Control, which contained active kinase. This control was designed to produce a 10-50% phosphorylated peptide in the Kinase Reaction. Cascade assays may produce up to 70% phosphorylated peptide.
A known inhibitor control standard curve, 10 point titration, was run for each individual kinase on the same plate as the kinase to ensure the kinase was inhibited within an expected IC50 range previously determined.
The following controls are prepared for each concentration of Test Compound assayed. […] The expected value for a non-interfering compound should be 100%. Any value outside of 90% to 110% was flagged. […] The expected value for a non-fluorescence compound should be 0%. Any value>20% was flagged.
The data in Table A was calculated. XLfit from IDBS was used. The dose response curve was curve fit to model number 205 (sigmoidal dose-response model).
Table 3 lists the MEK1 inhibition assay results of selected compounds according to the above procedure.

Series [2] in a line: Liver S9 half-life stability assay. The class given is in vitro ADME. The conditions noted are these: human, liver S9 fraction, pH 7.4; 1 μM test compound, 2 mg/mL liver protein, 1 mM NADPH; read-out: Assay 4: liver S9 half-life. The procedure:
Compounds can be assessed for metabolic stability in human skin by assessing their rate of disappearance from human S9 skin fraction. Similarly, compounds can be assessed for metabolic stability in human liver by assessing their rate of disappearance from human S9 liver fraction. The protocol below is used to assess the difference between skin and hepatic metabolism.
The assay was carried out in 96-well microtiter plates at 37° C. Reaction mixtures (25 μL) contained a final concentration of 1 μM test compound, 2 mg/mL liver or skin protein, and 1 mM NADPH in buffer (100 mM potassium phosphate, pH 7.4 buffer with 1 mM EDTA, 3 mM MgCl2). At each of the time points (0, 15, 30, and 60 minutes), 150 μL of quench solution (100% acetonitrile with 0.1% formic acid) with internal standard was transferred to each well. Besides the zero minute controls, mixtures containing the same components except the NADPH were also prepared as the negative control. Verapamil or testosterone was included as a positive control to verify assay performance. Plates were sealed and centrifuged at 4° C. for 15 minutes at 4000 rpm. The supernatant was transferred to fresh plates for LC/MS/MS analysis.
All samples were analyzed on LC/MS/MS using an AB Sciex API 4000 instrument, coupled to a Shimadzu LC-20AD LC Pump system. Analytical samples were separated using a Waters Atlantis T3 dC18 reverse phase HPLC column (20 mm×2.1 mm) at a flow rate of 0.5 mL/min. The mobile phase consisted of 0.1% formic acid in water (solvent A) and 0.1% formic acid in 100% acetonitrile (solvent B).
The extent of metabolism was calculated as the disappearance of the test compound, compared to the 0-min control reaction incubations. Initial rates were calculated for the compound concentration and used to determine t1/2 values and subsequently, the intrinsic clearance, CLint=(0.693) (1/t1/2 (min)) (mL incubation/mg of S9 protein).
Assay 4 is the liver S9 half-life stability assay as described in Example 42. A4 indicates a half life of greater than 50 min and less than or equal to 200 min and B4 indicates a half life of less than or equal to 50 minutes.

For series [3], the system named is A375 cells. Nature of the series: A375 (BRAF) GI50 cell-based assay (Cell Titer-Glo). The conditions noted are these: Homo sapiens, A-375, 72 hours, read-out: Assay 2: A375 (BRAF) GI50. How it is done:
(§1) Alternatively, the following procedure can be used to measure cell-based activity. Test compounds were dissolved in DMSO in 10 mM stock. Cell Titer-Glo® 2.0 Luminescent cell viability assay reagent was purchased from Promega (Madison, Wis.). A375 and HCT116 cell lines were purchased from American Type Culture Collection (Manassas, Va.). For A375 cells, cell culture media was DMEM+10% FBS. For HCT116 cells, cell culture media was McCoy's 5A+10% FBS. All media were supplemented with 100 μg/mL of penicillin, and 100 μg/mL of streptomycin. Cultures were maintained at 37° C. in a humidified atmosphere of 5% CO2 and 95% air.
(§2) Test compounds were diluted in DMSO solution with 10-dose and 3-fold dilutions in a source plate starting at 10 mM. 25 nL of each test compound was delivered from the source plate to each well of the 384-well cell culture plates (T=Final) by Echo 550. 25 μL of culture medium containing 2000 of A375 or HCT116 cells was added to each of the wells in duplicates of the cell culture plates (T=0 and T=Final). 25 μL of Cell Titer Glo 2.0 reagent was added to each well of cell culture plate (T=0). The contents were mixed on an orbital shaker for 2 min and incubated at room temperature for 15 min to stabilize luminescent signal. Luminescence was recorded by Envision 2104 Multilabel Reader (PerkinElmer, Santa Clara, Calif.). The number of viable cells in culture was determined based on quantitation of the ATP present in each culture well. The cells in cell culture plate (T=Final) were incubated with the compounds at 37° C., 5% CO2 for 72 hours. 25 μL of Cell Titer Glo 2.0 reagent was added to each well. The contents were mixed on an orbital shaker for 2 min and incubated at room temperature for 15 min to stabilize luminescent signal. Luminescence was recorded by Envision 2104 Multilabel Reader (PerkinElmer, Santa Clara, Calif.). The number of viable cells in culture was determined based on quantitation of the ATP present in each culture well. The GI50 curves were plotted using the GraphPad Prism 4 program based on a sigmoidal dose-response equation Y=Bottom+(Top-Bottom)/(1+10^((Log EC50−X)*HillSlope)). All parameters in the equation were calculated by GraphPad Prism 4 program. […] Accordingly, GI50 is the value of 10^X, where X was calculated by the Curve Fitting Equation when Y=50 using Excel.
Assay 2 is the A375 (BRAF) GI50 (nM) cell-based assay as described in Example 41.

The test system of series [4] is HCT116 cells. Nature of the series: HCT116 (Kras) GI50 cell-based assay (Cell Titer-Glo). The conditions noted are these: Homo sapiens, HCT-116, 72 hours, read-out: Assay 3: HCT116 (Kras) GI50. How it is done:
as §1, §2
Assay 3 is the HCT116 (Kras) GI50 (nM) assay as described in Example 41.
Background: In ATP-based viability assays light output follows the ATP content of the culture.

The conditions of series [5]: systemic MEK inhibitor; cited from earlier work.

MEK1, sequence (Q02750 whole entry): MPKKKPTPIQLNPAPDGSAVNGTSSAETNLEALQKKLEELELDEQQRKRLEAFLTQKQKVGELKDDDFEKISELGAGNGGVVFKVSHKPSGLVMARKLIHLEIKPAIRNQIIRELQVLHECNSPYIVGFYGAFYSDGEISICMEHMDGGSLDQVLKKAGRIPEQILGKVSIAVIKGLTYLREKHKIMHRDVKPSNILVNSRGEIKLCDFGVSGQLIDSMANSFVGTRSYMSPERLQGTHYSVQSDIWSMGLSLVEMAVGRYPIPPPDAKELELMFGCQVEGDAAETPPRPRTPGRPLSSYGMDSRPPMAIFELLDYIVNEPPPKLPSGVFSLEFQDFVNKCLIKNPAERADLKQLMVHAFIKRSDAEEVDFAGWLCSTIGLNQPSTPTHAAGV

Take `COC(=O)CCONC(=O)c1ccc(C#N)cc1Nc1ccc(I)cc1F` [Compound 1.022, Methyl 3-((4-cyano-2-((2-fluoro-4-iodophenyl)amino)benzamido)oxy) propanoate]: in series [1], the IC50 was above 1500 nM. As for `CCCONC(=O)c1ccc(C#N)cc1Nc1ccc(I)cc1F` [Compound 1.009], in series [2], the half-life at 1 μM was at most 50 min. Take `CONC(=O)c1ccc(C#N)cc1Nc1ccc(I)cc1F` [Compound 1.007]: the GI50 in series [3] was in the range of 500 to 1500 nM; in series [4], 750 to 2000 nM. Also, the half-life at 1 μM in series [2] is at most 50 min. On to `O=C(NOC[C@H](O)CO)c1ccc(F)c(F)c1Nc1ccc(I)cc1F` [PD0325901], for which, in series [5], the “side effects in clinical trials” value is “neurological side effects associated with ataxia, confusion, and syncope”. As for `N#Cc1ccc(C(=O)NC2CC2)c(Nc2ccc(I)cc2F)c1` [Compound 1.005], the IC50 in series [1] is above 1500 nM. As for `N#Cc1ccc(C(=O)NO)c(Nc2ccc(I)cc2F)c1` [Compound 1.017, 4-Cyano-2-((2-fluoro-4-iodophenyl)amino)-N-hydroxybenzamide], the IC50 in series [1] was at most 150 nM. Consider `CCONC(=O)c1ccc(C#N)cc1Nc1ccc(I)cc1F` [Compound 1.008], for which the GI50 in series [3] fell in the range of 500 to 1500 nM; in series [4], 750 to 2000 nM. Further, in series [2], the half-life at 1 μM was at most 50 min.
